Test results from article PMC11239671, “GolpHCat (TMEM87A), a unique voltage-dependent cation channel in Golgi apparatus, contributes to Golgi-pH maintenance and hippocampus-dependent memory” (Nature Communications, 2024).
Substitutions are numbered along the chain they refer to.

Assays:
[1] = target: T1, TMEM87A (GolpHCat) (Homo sapiens, UniProt Q8NBN3); assay: cryo-EM structure at ~[…] Å with […] sodium gluconate; IC50 from whole-cell patch clamp in CHO-K1 cells; type: cell-based; set-up: full-length hTMEM87A, M1-E555 (isoform 1, NP_056312.2), EGFP-Twin-strep tag
T1 sequence (Q8NBN3 1-555): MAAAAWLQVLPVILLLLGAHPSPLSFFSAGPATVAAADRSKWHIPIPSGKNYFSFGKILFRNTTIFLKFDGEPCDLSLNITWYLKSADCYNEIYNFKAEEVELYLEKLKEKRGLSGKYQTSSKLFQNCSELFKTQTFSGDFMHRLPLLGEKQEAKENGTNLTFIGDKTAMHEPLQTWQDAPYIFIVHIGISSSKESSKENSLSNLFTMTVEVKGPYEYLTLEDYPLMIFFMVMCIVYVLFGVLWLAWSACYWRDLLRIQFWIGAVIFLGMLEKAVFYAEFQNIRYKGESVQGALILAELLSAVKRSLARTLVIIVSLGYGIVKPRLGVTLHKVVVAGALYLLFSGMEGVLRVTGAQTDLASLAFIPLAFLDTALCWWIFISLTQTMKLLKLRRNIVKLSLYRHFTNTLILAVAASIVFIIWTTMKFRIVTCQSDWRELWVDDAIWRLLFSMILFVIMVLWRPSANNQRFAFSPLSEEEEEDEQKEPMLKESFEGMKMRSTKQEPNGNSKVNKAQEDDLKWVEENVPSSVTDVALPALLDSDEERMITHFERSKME

[2] = target: T2, TMEM87A (GolpHCat) (Homo sapiens, UniProt Q8NBN3, A308M); assay: cryo-EM structure at ~[…] Å; co-purified lipid density; type: binding
T2 construct: full-length hTMEM87A, M1-E555
T2 sequence (Q8NBN3 1-555 A308M): T1 sequence (Q8NBN3 1-555) with A308M

[3] = target: T1, TMEM87A (GolpHCat); assay: cryo-EM structure at […] Å; co-purified lipid, assigned from density shape and Golgi lipid composition; type: binding; set-up: full-length hTMEM87A, M1-E555; modelled D38-P473

## O=C(O)[C@H](O)[C@@H](O)[C@H](O)[C@H](O)CO [gluconate]
[1]
  IC50: 100 nM

## CCCCCCCC/C=C\CCCCCCCC(=O)O[C@H](COC(=O)CCCCCCCCCCCCCCC)COP(=O)(O)OCCN [PE, 1-palmitoyl-2-oleoyl-sn-glycerol-3-phosphoethanolamine]
[2]
  cryo-EM structure at ~3.1 Å; co-purified lipid density: the PE density in hTMEM87A A308M was displaced to a position similar to that of the S6 state
[3]
  cryo-EM structure at 3.1 Å; co-purified lipid, assigned from density shape and G: PE was co-purified with hTMEM87A, suggesting that PE tightly and stably binds to TMEM87A
